Molecular target: T1, human dopamine D2long receptor (Homo sapiens, UniProt P14416)
T1 construct: expressed in transfected cells; host or cells: GH4C1 rat pituitary cells
Experiment: Inhibition via dopamine D2 receptors of forskolin-stimulated adenylate cyclase activity (cAMP Flashplate, GH4C1/hD2L cells)
Assay type: cell-based
Settings: D2 EC50 value divided by D3 EC50 value; where D2 EC50 was >10000, a figure of 10000 was used
Method: A suitable assay for determining functionally the activity of a compound at D3 and/or […] dopamine receptors is detailed hereinbelow. Compounds are evaluated as agonists or antagonists at the dopamine D2 and D3 receptors by looking at cAMP levels in a GH4C1 and CHO cell-line expressing the human D2 and D3 receptors, respectively.
Inhibition Via Dopamine D2 Receptors of Forskolin Stimulated Adenylate Cyclase Activity Materials Cell Culture Media:
4× assay stock of 20 μM made by carrying out a 1000-fold dilution in PBS buffer, 25 μl of the 20 μM stock is added to a final assay volume of 100 μl, giving a final assay concentration of 5 μM.
• Pramipexole is included as a reference standard. A 10-point, semi-log curve is generated every 4 plates. Compound responses are normalised to the minimum (0 nM pramipexole) and maximum (100 nM Pramipexole) responses generated by the cells. All test compounds may also be tested via a 10-point (semi-log) curve. • Test compounds are dissolved in 100% DMSO to yield a stock concentration of 10 mM, (1000× the final assay concentration required, e.g. 10 mM will give a top concentration of 10000 nM). • Pramipexole is dissolved in 100% DMSO to give a concentration of 10 mM. […]

T1 sequence (P14416 whole entry): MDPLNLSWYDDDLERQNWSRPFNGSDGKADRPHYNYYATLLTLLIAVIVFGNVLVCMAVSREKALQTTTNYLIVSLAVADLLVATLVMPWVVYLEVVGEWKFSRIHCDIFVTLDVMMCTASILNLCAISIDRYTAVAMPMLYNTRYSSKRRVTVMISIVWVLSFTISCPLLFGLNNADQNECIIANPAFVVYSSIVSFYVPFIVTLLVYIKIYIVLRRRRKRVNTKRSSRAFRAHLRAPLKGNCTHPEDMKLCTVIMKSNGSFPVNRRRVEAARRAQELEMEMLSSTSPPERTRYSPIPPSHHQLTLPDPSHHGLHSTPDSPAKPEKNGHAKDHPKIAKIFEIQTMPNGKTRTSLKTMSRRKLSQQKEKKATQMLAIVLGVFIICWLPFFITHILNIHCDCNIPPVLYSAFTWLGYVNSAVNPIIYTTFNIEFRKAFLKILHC

## CCCN1CCO[C@H](c2cccc(O)c2)C1.Cl [Example 8, R-(−)-3-(4-Propylmorpholin-2-yl)phenol hydrochloride]
  selectivity for D3 over D2: 1315.8 fold

Reference: patent publication US7902188B2, “Morpholine dopamine agonists” (Pfizer Inc., priority 2002, dated 2011)
